EC50 data for 5 compounds are collected here from ChEMBL document CHEMBL5725494, “S1P receptors modulators and their use thereof” (2017).

SMILES strings stand for the structures.

Sequence of Sphingosine 1-phosphate receptor 3 (Q99500 whole entry): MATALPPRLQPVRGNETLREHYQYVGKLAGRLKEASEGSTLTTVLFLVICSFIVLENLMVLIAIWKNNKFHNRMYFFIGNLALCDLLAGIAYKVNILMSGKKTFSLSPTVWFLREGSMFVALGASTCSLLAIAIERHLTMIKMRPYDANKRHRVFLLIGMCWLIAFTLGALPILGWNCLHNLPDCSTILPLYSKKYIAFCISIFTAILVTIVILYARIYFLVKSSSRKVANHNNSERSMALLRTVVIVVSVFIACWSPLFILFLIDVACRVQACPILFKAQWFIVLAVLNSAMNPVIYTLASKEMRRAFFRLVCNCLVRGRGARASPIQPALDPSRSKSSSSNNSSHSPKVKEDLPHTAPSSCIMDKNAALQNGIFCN

One assay concerns the target Sphingosine 1-phosphate receptor 3 (Homo sapiens, UniProt Q99500). Description: (§1) S1P Assay: Selected Compounds of the Examples were evaluated at Millipore Corporation, USA, using S1P1 receptor; [35S]-GTPgamaS binding assay. A [35S]-GTPgamaS binding assay at Millipore was conducted by GPCR Profiler¿ Custom Service Laboratory, Temecula, Calif., Millipore, Inc. to monitor dose-dependent agonist selectivity for selected Examples against the S1P1 receptors. The assay was completed with sample compounds subjected to an eight-point, four-fold dose response curve with starting concentration of 10 μM. Selectivity was determined upon initial addition of compounds followed by a 30 minute incubation at 30° C. Following compound incubation, bounded [35S]-GTPgamaS was determined by filtration and scintillation counting. Independently, selected compounds were evaluated for S1P1 and S1P3 agonistic activity. The S1P1 assay system was GTPgama-S35 binding in membranes from CHO K1 cells, expressing S1P1 human receptor. The S1P3 assay system was calcium mobilization in CHO K1 cells expressing S1P3 human receptor. There was no significant background response to S1P in the CHO K1 cells with either assay. Compounds were tested initially at a concentration of 10 μM. Format: cell membranes. (A change in cytosolic calcium serves as a functional read-out for many receptors and channels.)
Consider `CCOc1ccc(-c2nc(-c3ccc4oc(C(N)(CO)CO)cc4c3)no2)cc1OCC`, for which the EC50 stood at 0.38 µM.

The target in the next assay is Sphingosine 1-phosphate receptor 1 (Homo sapiens, UniProt P21453). The description is as §1. Format: cell membranes.
Sequence of Sphingosine 1-phosphate receptor 1 (P21453 whole entry): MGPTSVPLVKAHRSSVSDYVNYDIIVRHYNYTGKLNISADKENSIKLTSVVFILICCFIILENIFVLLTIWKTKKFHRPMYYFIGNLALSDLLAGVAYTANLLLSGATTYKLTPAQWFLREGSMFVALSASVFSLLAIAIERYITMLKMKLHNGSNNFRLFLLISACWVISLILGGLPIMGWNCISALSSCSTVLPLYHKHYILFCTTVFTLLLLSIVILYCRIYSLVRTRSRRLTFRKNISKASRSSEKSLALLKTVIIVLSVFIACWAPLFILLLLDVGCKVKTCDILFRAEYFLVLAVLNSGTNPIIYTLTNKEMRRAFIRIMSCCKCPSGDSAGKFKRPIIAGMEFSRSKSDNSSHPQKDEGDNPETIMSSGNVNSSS
Consider `CCCCCCCCc1ccc(NC(=O)NCCC(=O)O)cc1`, for which the EC50 is 0.46 µM.

Turning to `CCOc1ccc(-c2nc(-c3ccc4oc(C(N)(CO)CO)cc4c3)no2)cc1OCC`, the EC50 worked out at 0.057 µM.

Take `COc1ccc(COc2ccc(CN3CC(C(=O)O)C3)cc2)cc1C12CC3CC(CC(C3)C1)C2`: the EC50 was 0.06 µM.

`CC(C)N(Cc1ccc(-c2ccc(CN3CC(C(=O)O)C3)cc2)cc1)c1ccc(F)cc1`: the EC50 amounted to 0.6 µM.

As to `Cc1ccc(/C=C/c2nc(-c3ccc4oc(C(N)(CO)CO)cc4c3)no2)cc1`, the EC50 was 1.82 µM.

For orientation: EC50 means the concentration needed to bring the measured effect to its halfway point.
